Test results: patent US20250345307A1, “SYNTHETIC […] BROAD-SPECTRUM ANTIVIRAL ACTIVITIES AND USES THEREOF” (priority 2020, published 2025)
Entries after “also recorded” stand apart in the source; their conditions may differ. Like-named read-outs stand apart in the source and are kept apart here.

Experiments:
HCoV-229E [1] = assay: microbe, parasite or virus in culture; assay type: cell-based, human coronavirus 229E
MERS-CoV [2] = assay: microbe, parasite or virus in culture; assay type: cell-based, Middle East respiratory syndrome coronavirus
LASV = assay: microbe, parasite or virus in culture; assay type: cell-based, Lassa mammarenavirus; settings: for EC50: Mammarenavirus lassaense, Hepatocyte, in Mus musculus
CCHFV = assay: microbe, parasite or virus in culture; assay type: cell-based, Crimean-Congo hemorrhagic fever virus; settings: for EC50: Orthonairovirus haemorrhagiae, Hepatocyte, in Mus musculus
ZIKV = assay: Antiviral activity against ZIKV (strain 976 Uganda) in A549 cells, intracellular ZIKV genomes by qRT-PCR; assay type: cell-based; settings: Zika virus
HCoV-229E [3] = assay type: cell-based, human coronavirus 229E
HEV = assay type: cell-based, hepatitis E virus
[4] = system: eIF4A-dependent translation; assay: cells; assay type: cell-based; settings: for inhibition at 0.01 µM: read-out: inhibition of translation of the (AG)15 construct
SARS-CoV-2 [5] = assay type: cell-based, severe acute respiratory syndrome coronavirus 2
murine hepatocytes = settings: for CC50: mouse
A549 cells = settings: human
tumor growth = settings: xenograft mouse model; cited from earlier work
HCoV-229E [6] = assay type: cell-based, human coronavirus 229E; remark: listed apart in the source
SARS-CoV-2 [7] = assay type: cell-based, severe acute respiratory syndrome coronavirus 2; remark: listed apart in the source
[8] = system: persistently HEV-infected A549 cells; settings: 2 nM, 72 h
HCoV-229E [9] = assay type: cell-based, human coronavirus 229E; remark: listed apart in the source
HCoV-229E [10] = assay: Immunofluorescence of nsp8 and dsRNA in HCoV-229E-infected MRC-5 cells; assay type: cell-based, human coronavirus 229E; settings: MRC-5, MOI 1, 24 hpi
SARS-CoV-2 [11] = assay: microbe, parasite or virus in culture; assay type: cell-based, severe acute respiratory syndrome coronavirus 2
SARS-CoV-2 [12] = assay: Immunofluorescence of viral dsRNA in SARS-CoV-2-infected Vero E6 cells; assay type: cell-based, severe acute respiratory syndrome coronavirus 2; settings: Vero E6, MOI 1, 24 h p.i.
NHBE cells = assay: Cytotoxicity in differentiated NHBE cells by light microscopy; assay type: cell-based, human; settings: 100 nM
HCoV-229E [13] = settings: Müller et al. [2020]; read-out: EC50 reported previously for HCoV-229E; cited from earlier work
MERS-CoV [14] = settings: read-out: EC50 reported previously for MERS-CoV; cited from earlier work
[15] = mice, cited from earlier work
[16] = Middle East respiratory syndrome-related coronavirus, MRC5

Compound: COC(=O)[C@H]1[C@@H](O)[C@@]2(O)c3c(OC)cc(O[C@@H]4O[C@@H]([C@H](O)CO)CO[C@H]4OC)cc3O[C@@]2(c2ccc(OC)cc2)[C@@H]1c1ccccc1 [Silvestrol, methyl(1R,2R,3S,3aR,8bS)-6-[[(2S,3R,6R)-6-[(1R)-1,2-dihydroxyethyl]-3-methoxy-1,4-dioxan-2-yl]oxy]-1,8b-dihydroxy-8-methoxy-3a-(4-methoxyphenyl)-3-phenyl-2,3-dihydro-1H-cyclopenta[b][1]benzofuran-2-carboxylate, reference compound]
- EC50 (HCoV-229E [1]; Human coronavirus 229E, MRC5): 3 nM
- EC50 (MERS-CoV [2]; [16]): 1.3 nM
- antiviral activity against LASV and CCHFV (in words) (LASV): potent antiviral activity
- virus titer drop, LASV-infected cells (LASV): approximately 4 log
- EC50 (LASV): 50.7 nM
- EC50 (LASV; read-out: EC50 values): 20 to 50 nM
- virus titer drop, CCHFV-infected cells (CCHFV): ~3 log
- EC50 (CCHFV): 28.5 nM
- EC50 (ZIKV; A549): 1.08 nM
- infectious virus production (HCoV-229E [3]): undetectable levels
- reduction of virus titer in the supernatant (HCoV-229E [3]): similar
- antiviral effect on extracellular HEV RNA levels (HEV): antiviral activity
- induction of luciferase activity [4]: 1.5 fold
- inhibitory effect, destabilized HEV 5′-UTR hairpin [4]: gradual loss of the inhibitory effect
- luciferase activity, HEVgt3c 5′-UTR [4]: reduced luciferase activity
- reporter activity, VP35-HP only [4]: sufficient to mediate translation inhibition
- reporter activity, VP35-HP+(AG)5 [4]: slightly increased translation inhibition
- sensitivity of translation, EBOV VP35 5′-UTR [4]: sensitive
- sensitivity to translation inhibition, 5′-UTRs of HCoV-229E, MERS-CoV and EBOV VP30 [4]: similarly sensitive
- sensitivity, HEVgt3c-Purine 5′-UTR [4]: became sensitive
- inhibition at 0.01 µM [4]: ~55%
- SARS-CoV-2 replication / titers (SARS-CoV-2 [5]): completely abolished
- CC50 (MRC-5 cells; human): > 10000 nM
- cytotoxicity (in words) (murine hepatocytes): no detectable cytotoxicity
- CC50 (murine hepatocytes): > 5000 nM
- CC50 (A549 cells): 9.42 nM
- tumor growth (tumor growth): reduced tumor growth efficiently

Compound: CONC(=O)[C@@H]1[C@H](O)[C@]2(O)c3c(OC)cc(OC)cc3O[C@]2(c2ccc(OC)cc2)[C@H]1c1ccccc1 [CR-31-B (+)]
- antiviral activity against LASV and CCHFV (in words) (LASV): no antiviral effects
- Coronavirus N-protein levels (HCoV-229E [6]): no detectable effect
- infectious virus production (HCoV-229E [3]): did not significantly reduce viral replication
- Viral nucleocapsid (N) protein levels (SARS-CoV-2 [7]): not affected
- SARS-CoV-2 replication / titers (SARS-CoV-2 [5]): did not affect viral replication
- cytotoxicity (in words) (MRC-5 cells): no major cytotoxicity
- reduction of cell viability [8]: no major cytotoxic effects

Compound: CONC(=O)[C@H]1[C@@H](O)[C@@]2(O)c3c(OC)cc(OC)cc3O[C@@]2(c2ccc(OC)cc2)[C@@H]1c1ccccc1 [CR-31-B (−)]
- EC50 (HCoV-229E [1]): 2.88 nM
- EC50 (HCoV-229E [1]; Human coronavirus 229E, MRC5): 3.49 nM
- EC50 (MERS-CoV [2]): 1.87 nM
- MERS-CoV titer reduction (MERS-CoV [2]): about 5 log phases
- EC50 (MERS-CoV [2]; [16]): 2.09 nM
- antiviral activity against LASV and CCHFV (in words) (LASV): potent antiviral activity
- virus titer drop, LASV-infected cells (LASV): approximately 4 log
- EC50 (LASV): 36.1 nM
- EC50 (LASV; read-out: EC50 values): 20 to 50 nM
- virus titer drop, CCHFV-infected cells (CCHFV): ~3 log
- EC50 (CCHFV): 20 nM
- EC50 (ZIKV; A549 cells, MOI 0.1, ZIKV genomes by qRT-PCR, 24 hpi, read-out: EC50): 1.13 nM
- Coronavirus N-protein levels (HCoV-229E [6]): strongly reduced
- genomic and subgenomic RNA levels of HCoV-229E (HCoV-229E [9]): reduced
- formation of viral replication/transcription complexes (HCoV-229E [10]): reduced
- infectious virus production (HCoV-229E [3]): undetectable levels
- reduction of virus titer in the supernatant (HCoV-229E [3]): about 1.5 orders of magnitude
- antiviral effect on extracellular HEV RNA levels (HEV): slightly weaker; also recorded: some antiviral activity
- induction of luciferase activity [4]: 1.5 fold
- reporter activity, VP35-HP only [4]: about twofold
- reporter activity, VP35-HP+(AG)5 [4]: reduced back to basic levels
- sensitivity of translation, EBOV VP35 5′-UTR [4]: insensitive
- sensitivity to eIF4A-dependent translation inhibition, 5′-UTRs of SARS-CoV-2, HCoV-229E and MERS-CoV [4]: similarly sensitive
- sensitivity to translation inhibition, 5′-UTRs of HCoV-229E, MERS-CoV and EBOV VP30 [4]: similarly sensitive
- sensitivity, HEVgt3c-Purine 5′-UTR [4]: became sensitive
- inhibition at 0.01 µM [4]: ~80%
- selectivity index (CC50/EC50) (SARS-CoV-2 [11]): > 50
- EC50 (SARS-CoV-2 [11]; Severe acute respiratory syndrome coronavirus 2, Vero C1008, 24 h): ~1.8 nM
- Viral nucleocapsid (N) protein levels (SARS-CoV-2 [7]): drastically reduced; also recorded: moderately reduced
- replicative organelles active in viral RNA synthesis (dsRNA) (SARS-CoV-2 [12]): profound reduction
- SARS-CoV-2 replication / titers (SARS-CoV-2 [5]): undetectable levels
- reduction of SARS-CoV-2 titers (SARS-CoV-2 [5]): about 4 logs
- reduction of production of infectious virus progeny (SARS-CoV-2 [5]): approximately 1.5 log steps
- cytotoxicity by light microscopy (NHBE cells): No obvious cytotoxicity
- cytotoxicity (in words) (MRC-5 cells): no major cytotoxicity
- CC50 (MRC-5 cells; human): > 5000 nM
- reduction of cell viability (MRC-5 cells; human): 10-25%
- cytotoxicity (in words) (murine hepatocytes): no detectable cytotoxicity
- CC50 (murine hepatocytes): > 5000 nM
- EC50 (HCoV-229E [13]): 2.88 nM
- EC50 (MERS-CoV [14]): 1.87 nM
- reduction of cell viability [8]: no major cytotoxic effects
- cytotoxicity (in words) (Vero E6 cells): No major cytotoxicity
- cell viability reduced by (Vero E6 cells; African green monkey): 10-25%

Compound: CR-31-B
- cytotoxic effects (in words) (MRC-5 cells): no major cytotoxic effects
- reduction of cell viability [8]: not cytotoxic
- tumor growth (tumor growth): reduced tumor growth efficiently
- serum levels of aminotransferases (ALT and AST), albumin, total bilirubin, creatinine ([15]; two weeks after cessation of treatment): not significantly changed
- body weight, number of blood cells [15]: did not change
- toxicity in the gastrointestinal tract [15]: no toxicity could be observed
